A word on the IC50: it is the point on the concentration scale where inhibition reaches its midpoint.

Structures are written as SMILES.

Data set [1] addresses T1, Tyrosine-protein phosphatase non-receptor type 1 (Homo sapiens, UniProt P18031).
T1 sequence (P18031 whole entry): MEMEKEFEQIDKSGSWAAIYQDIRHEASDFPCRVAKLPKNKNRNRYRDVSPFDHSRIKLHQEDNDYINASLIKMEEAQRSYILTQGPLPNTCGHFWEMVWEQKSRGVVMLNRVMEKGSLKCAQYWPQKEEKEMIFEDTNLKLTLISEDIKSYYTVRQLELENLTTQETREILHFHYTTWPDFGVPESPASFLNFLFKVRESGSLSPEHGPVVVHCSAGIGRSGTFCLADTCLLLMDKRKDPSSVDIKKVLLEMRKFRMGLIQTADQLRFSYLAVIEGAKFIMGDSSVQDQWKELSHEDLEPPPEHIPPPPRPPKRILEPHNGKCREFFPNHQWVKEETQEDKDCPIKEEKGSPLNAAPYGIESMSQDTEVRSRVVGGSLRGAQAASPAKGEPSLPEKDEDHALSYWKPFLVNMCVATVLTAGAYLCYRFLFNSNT
Briefly: Inhibition of recombinant PTP1B (unknown origin) using pNPP substrate.

A further data set concerns MCF7. As to the kind of experiment: Anticancer activity against human MCF7 cells incubated for 24 hrs by MTT assay. It counts as functional, cell-based. As to conditions: MCF7, 24 h. In general terms: Tetrazolium dyes change colour on reduction, which living cells bring about.
The subject of another data set is K562. Briefly: Anticancer activity against human K562 cells incubated for 24 hrs by MTT assay. The class given is functional, cell-based. The conditions noted are these: K562, 24 h.
A further data set concerns HepG2. As to the kind of experiment: Anticancer activity against human HepG2 cells incubated for 24 hrs by MTT assay. The conditions noted are these: HepG2, 24 h. It counts as functional, cell-based.
In the next data set the test system is MDA-MB-231. As to the kind of experiment: Anticancer activity against human MDA-MB-231 cells incubated for 24 hrs by MTT assay. It counts as functional, cell-based. As to conditions: MDA-MB-231, 24 h.
The test system of a further data set is HeLa. As to the kind of experiment: Anticancer activity against human HeLa cells incubated for 24 hrs by MTT assay. It counts as functional, cell-based.
In another data set the test system is HEK293. Briefly: Cytotoxicity activity against human HEK293 cells incubated for 24 hrs by MTT assay. The conditions noted are these: HEK293, 24 h. The class given is cell-based.
Data set [2] is described as follows: Stability in various solvents up to 96 hrs at different temperatures. The class given is physicochemical.

Consider `COC(=O)c1scc(-c2ccc(NC(=O)c3ccc(C(F)(F)F)nc3)cc2)c1OC`, for which the IC50 in data set [1] was found to be 7.29 µM; in the data set on MCF7, 1.47 µM; in the data set on K562, 12.5 µM; in the data set on HepG2, 23.3 µM; in the data set with MDA-MB-231, 7.25 µM; with HeLa it was 23.5 µM.
Regarding `COC(=O)c1scc(-c2ccc(NC(=O)c3ccc(C#N)nc3)cc2)c1OC`, the IC50 in data set [1] came to 12.5 µM; in the data set on MCF7, 9.54 µM; in the data set on HepG2, 22.5 µM; with MDA-MB-231, 28.5 µM.
Regarding `COC(=O)c1scc(-c2ccc(NC(=O)c3ccc(F)c(Cl)n3)cc2)c1OC`, the IC50 in data set [1] turned out to be 12.3 µM; in the data set on MCF7 it was 10.3 µM; in the data set with K562 it was 8.25 µM; in the data set on HepG2 it was 10.3 µM; in the data set with MDA-MB-231, 10.3 µM; in the data set on HeLa, 16.2 µM.
`COC(=O)c1scc(-c2ccc(NC(=O)c3cccc(I)c3)cc2)c1OC`: the half-maximal inhibitory concentration (IC50) in data set [1] was found to be 14.5 µM; with MCF7 it was 12.2 µM; in the data set with K562, 14.7 µM; in the data set with HepG2, 16.5 µM; in the data set on MDA-MB-231, 8.24 µM; with HeLa, 12.7 µM. In the data set with HEK293, this molecule registered a half-inhibitory concentration (IC50) of 42.7 µM.
As for `COC(=O)c1scc(-c2ccc(NC(=O)c3cc(I)ccc3F)cc2)c1OC`, the IC50 turned out to be 20.6 µM in data set [1]; 22.5 µM with MCF7; 35.6 µM in the data set on K562; 16.5 µM with MDA-MB-231; 45.2 µM in the data set on HEK293.
As for `COC(=O)c1scc(-c2ccc(NC(=O)c3ccc4ccccc4c3)cc2)c1OC`, the concentration for half-maximal inhibition (IC50) was 5.25 µM in data set [1]; 0.09 µM with MCF7; 10.2 µM in the data set on K562; 19.5 µM with HepG2; 5.25 µM in the data set on MDA-MB-231; 18.2 µM in the data set with HeLa. Also, the Stability entry in data set [2] is “Stable”.
For `COC(=O)c1scc(-c2ccc(NC(=O)c3cccs3)cc2)c1OC`, the IC50 is 24.3 µM in data set [1]; 18.6 µM in the data set with MCF7; 15.3 µM in the data set on HepG2; over 50 µM with MDA-MB-231; over 50 µM with HeLa; over 50 µM in the data set on HEK293.
As to `COC(=O)c1scc(-c2ccc(NC(=O)c3ccc(OC)nc3)cc2)c1OC`, the half-maximal inhibitory concentration (IC50) in data set [1] is 22.3 µM; with MCF7, 5.25 µM; in the data set on K562, 18.2 µM; in the data set on HepG2 it was over 50 µM; with MDA-MB-231, 15.3 µM; in the data set on HeLa, 24.4 µM. The IC50 with HEK293 is over 50 µM.
Regarding `COC(=O)c1scc(-c2ccc(NC(=O)c3ccc(C(F)(F)F)cc3Br)cc2)c1OC`, the IC50 in data set [1] is 16.5 µM; in the data set with MCF7, 22.4 µM; in the data set on K562, 9.25 µM; in the data set with HepG2 it was 28.2 µM; in the data set on MDA-MB-231 it was 19.6 µM; in the data set on HeLa it was 16.2 µM. In the data set with HEK293, this molecule had a concentration for half-maximal inhibition (IC50) of over 50 µM.
With `COC(=O)c1scc(-c2ccc(NC(=O)c3cccc(C(F)(F)F)c3)cc2)c1OC`, the IC50 in data set [1] turned out to be 12.3 µM; with MCF7, 26.2 µM; in the data set with K562, 6.13 µM; in the data set on HepG2 it was 32.5 µM; in the data set on MDA-MB-231, 24.6 µM; in the data set on HeLa it was 19.3 µM.
Consider `COC(=O)c1scc(-c2ccc(NC(=O)c3ccc(C(F)(F)F)cc3)cc2)c1OC`, for which the half-inhibitory concentration (IC50) in data set [1] came to 14.8 µM; in the data set on MCF7, 24.6 µM; in the data set on K562, 9.26 µM; in the data set with HepG2, 24.6 µM; in the data set on MDA-MB-231 it was 18.3 µM; with HeLa, 14.4 µM. In the data set with HEK293, this molecule yielded a 50% inhibitory concentration (IC50) of 48.3 µM.
As to `COC(=O)c1scc(-c2ccc(NC(=O)c3ccccn3)cc2)c1OC`, the IC50 in data set [1] is 11.3 µM; in the data set on MCF7, 19.2 µM; with K562, 24.2 µM; with HepG2, 10.3 µM; in the data set on MDA-MB-231 it was 8.25 µM; with HeLa, over 50 µM.
Regarding `COC(=O)c1scc(-c2ccc(NC(=O)c3ncc(Cl)cc3Br)cc2)c1OC`, the IC50 in data set [1] was found to be 11.2 µM; with MCF7, 5.46 µM; in the data set with K562, 12.6 µM; in the data set with HepG2, 9.53 µM; in the data set on MDA-MB-231, 8.36 µM; in the data set with HeLa, 18.3 µM. In addition, the IC50 in the data set with HEK293 was over 50 µM.
Regarding `COC(=O)c1scc(-c2ccc(NC(=O)c3cccc(OC(F)(F)F)c3)cc2)c1OC`, the IC50 came out at 6.37 µM in data set [1]; 2.22 µM in the data set on MCF7; 18.2 µM in the data set with K562; 0.72 µM in the data set with HepG2; 7.54 µM with MDA-MB-231; 16.6 µM with HeLa.
As for `COC(=O)c1scc(-c2ccc(NC(=O)Cc3c(Cl)cccc3Cl)cc2)c1OC`, the IC50 in data set [1] worked out at 16.3 µM; with MCF7, 12.2 µM; in the data set with K562, 9.56 µM; in the data set on HepG2, 13.5 µM; in the data set on MDA-MB-231, 14.2 µM.
Take `COc1cccc2c1C(=O)c1c(O)c3c(c(O)c1C2=O)C[C@@](O)(C(=O)CO)C[C@@H]3O[C@H]1C[C@H](N)[C@H](O)[C@H](C)O1` [DOXORUBICIN]: the IC50 in the data set with MCF7 was determined as 0.41 µM; in the data set on K562 it was 0.07 µM; with MDA-MB-231, 0.6 µM; in the data set on HeLa, 0.37 µM.

Source of the values: ChEMBL document CHEMBL4033727, “Design, synthesis, in silico and in vitro evaluation of thiophene derivatives: A potent tyrosine phosphatase 1B inhibitor and anticancer activity” (Bioorg Med Chem Lett, 2017).
